{"source": "patent US20250295724A1", "about": "“COMPOSITION OF MALUS NIEDZWETZKYANA DIECK AND PRUNUS CERASIFERA EHRHART AND USE THEREOF IN TERMS OF RESISTING ATHEROSCLEROSIS” (priority 2023, published 2025)", "key": {"[1]": {"system": "high-fat diet induced ApoE-/-mice atherosclerosis model (aortic atherosclerotic plaque)", "experiment": "Treatment of atherosclerosis: aortic plaque area in high-fat diet induced ApoE-/- mice, samples given for 4 weeks after 17 weeks of modeling", "format": "in vivo", "source_text": "(§1) Wild type C57 mice were used as a normal control group, rosuvastatin was used as a positive drug, and the efficacy (i.e., treating effect) of the composition samples in resisting atherosclerosis was investigated in a high-fat diet induced ApoE-/-mice atherosclerosis model. An atherosclerosis model was established after 17 weeks of modeling, and a control group was fed with a common feed for 17 weeks. The sample administration group was continuously administered with the test samples for 4 weeks after 17 weeks of modeling, and thereafter the formation of aortic atherosclerotic plaque in the mice was observed, and the plaque area was measured after dissection to calculate the plaque percentage.\n(§2) Wild type C57 mice were used as a normal control group, rosuvastatin and atorvastatin were used as positive drugs, and the efficacy (i.e., treating effect) of the composition mixed samples in resisting atherosclerosis was investigated in a high-fat diet induced ApoE-/-mice atherosclerosis model. An atherosclerosis model was established after 17 weeks of modeling, and a control group was fed with a common feed for 17 weeks. The sample administration group was continuously administered with the test samples for 4 weeks after 17 weeks of modeling, and thereafter the formation of aortic atherosclerotic plaque in the mice was observed, and the plaque area was measured after dissection to calculate the plaque percentage.\nas §2, with “aspirin, clopidogrel, colchicine” for “rosuvastatin”, “probucol” for “atorvastatin”\nas §1, with “the” for “the composition”\nas §1, with “mice were dissected,” for “plaque area was measured after dissection”, “area (percentage).” for “percentage.”"}, "[2]": {"system": "high-fat diet induced ApoE-/-mice atherosclerosis model (aortic atherosclerotic plaque)", "experiment": "Prevention of atherosclerosis: aortic plaque area in high-fat diet induced ApoE-/- mice, samples given during 12 weeks of modeling", "format": "in vivo", "settings": "dose 1.67 mg/kg", "source_text": "An atherosclerosis model (namely, model group) was established after 12 weeks of modeling, and a control group (namely normal group) was fed with a common feed for 12 weeks. […] An atherosclerosis model (namely, model group) was established after 12 weeks of modeling, and a control group (namely normal group) was fed with a common feed for 12 weeks."}, "[3]": {"settings": "Table 6, treatment, drug alone 16.7 mg/kg"}, "[4]": {"settings": "Table 5, treatment, drug alone 1.67 mg/kg"}, "[5]": {"settings": "Table 5, treatment, drug alone 3.33 mg/kg"}, "[6]": {"settings": "Table 6, treatment, drug alone 12.5 mg/kg"}, "[7]": {"settings": "Table 6, treatment, drug alone 0.167 mg/kg"}, "[8]": {"settings": "Table 6, treatment, drug alone 83.5 mg/kg"}, "[9]": {"settings": "Table 2, treatment, 4 weeks, dose 1.67 mg/kg"}, "[10]": {"settings": "Table 4, treatment, 4 weeks, dose 1.67 mg/kg"}, "[11]": {"settings": "Table 5, treatment, drug alone 0.83 mg/kg"}, "[12]": {"settings": "Table 7, treatment, dose 1.67 mg/kg"}, "[13]": {"settings": "Table 8, treatment, dose 1.67 mg/kg"}, "[14]": {"settings": "Table 9, treatment, dose 1.67 mg/kg"}}, "note": "Marks after values point to notes of the source that are not given here.", "data": [{"smiles": "CC(=O)Oc1ccccc1C(=O)O", "note": "[aspirin]", "values": [{"measurement": "Inhibition rate compared to the model %", "setting": "[1]; [3]", "result": 33.74, "unit": "%"}, {"measurement": "Plaque area %", "setting": "[1]; [3]", "result": 29.91, "unit": "%*"}]}, {"smiles": "CC(C)c1c(C(=O)Nc2ccccc2)c(-c2ccccc2)c(-c2ccc(F)cc2)n1CC[C@@H](O)C[C@@H](O)CC(=O)O", "note": "[atorvastatin]", "values": [{"measurement": "Inhibition rate compared to the model %", "setting": "[1]; [4]", "result": 18.76, "unit": "%"}, {"measurement": "Plaque area %", "setting": "[1]; [4]", "result": 32.99, "unit": "%*"}, {"measurement": "Inhibition rate compared to the model %", "setting": "[1]; [5]", "result": 28.47, "unit": "%"}, {"measurement": "Plaque area %", "setting": "[1]; [5]", "result": 29.05, "unit": "%*"}]}, {"smiles": "COC(=O)[C@H](c1ccccc1Cl)N1CCc2sccc2C1", "note": "[clopidogrel]", "values": [{"measurement": "Inhibition rate compared to the model %", "setting": "[1]; [6]", "result": 32.76, "unit": "%"}, {"measurement": "Plaque area %", "setting": "[1]; [6]", "result": 30.35, "unit": "%*"}]}, {"smiles": "COc1cc2c(c(OC)c1OC)-c1ccc(OC)c(=O)cc1[C@@H](NC(C)=O)CC2", "note": "[colchicine]", "values": [{"measurement": "Inhibition rate compared to the model %", "setting": "[1]; [7]", "result": 25.12, "unit": "%"}, {"measurement": "Plaque area %", "setting": "[1]; [7]", "result": 33.80, "unit": "%*"}]}, {"smiles": "CC(C)(Sc1cc(C(C)(C)C)c(O)c(C(C)(C)C)c1)Sc1cc(C(C)(C)C)c(O)c(C(C)(C)C)c1", "note": "[probucol]", "values": [{"measurement": "Inhibition rate compared to the model %", "setting": "[1]; [8]", "result": 21.91, "unit": "%"}, {"measurement": "Plaque area %", "setting": "[1]; [8]", "result": 35.25, "unit": "%*"}]}, {"smiles": "CC(C)c1nc(N(C)S(C)(=O)=O)nc(-c2ccc(F)cc2)c1/C=C/[C@@H](O)C[C@@H](O)CC(=O)O", "note": "[rosuvastain, rosuvastatin]", "values": [{"measurement": "Inhibition rate compared to the model %", "setting": "[1]; [9]", "result": 38.69, "unit": "%"}, {"measurement": "Plaque area %", "setting": "[1]; [9]", "result": 26.10, "unit": "%*"}, {"measurement": "Inhibition rate compared to the model %", "setting": "[1]; [10]", "result": 34.77, "unit": "%"}, {"measurement": "Plaque area %", "setting": "[1]; [10]", "result": 25.87, "unit": "%**"}, {"measurement": "Inhibition rate compared to the model %", "setting": "[1]; [11]", "result": 16.97, "unit": "%"}, {"measurement": "Plaque area %", "setting": "[1]; [11]", "result": 33.72, "unit": "%*"}, {"measurement": "Inhibition rate compared to the model %", "setting": "[1]; [4]", "result": 31.40, "unit": "%"}, {"measurement": "Plaque area %", "setting": "[1]; [4]", "result": 27.86, "unit": "%*"}, {"measurement": "Inhibition rate compared to the model %", "setting": "[1]; [12]", "result": 34.77, "unit": "%"}, {"measurement": "Plaque area %", "setting": "[1]; [12]", "result": 25.87, "unit": "%**"}, {"measurement": "Inhibition rate compared to the model %", "setting": "[1]; [13]", "result": 38.69, "unit": "%"}, {"measurement": "Plaque area %", "setting": "[1]; [13]", "result": 26.10, "unit": "%*"}, {"measurement": "Inhibition rate compared to the model %", "setting": "[1]; [14]", "result": 42.69, "unit": "%"}, {"measurement": "Plaque area %", "setting": "[1]; [14]", "result": 27.94, "unit": "%**"}, {"measurement": "Inhibition rate compared to the model %", "setting": "[2]; Table 1, prevention", "result": 36.61, "unit": "%"}, {"measurement": "Plaque area %", "setting": "[2]; Table 1, prevention", "result": 20.93, "unit": "%**"}, {"measurement": "Inhibition rate compared to the model %", "setting": "[2]; Table 3, prevention", "result": 30.61, "unit": "%"}, {"measurement": "Plaque area %", "setting": "[2]; Table 3, prevention", "result": 24.82, "unit": "%"}]}]}
